Results reported in the supplement of paper PMC11061612.

What was measured:
Carboplatin = compound: C1CC(C1)(C(=O)[O-])C(=O)[O-].N.N.[Pt+2] [Carboplatin]; conditions: max 10 µM
Outline: (§1)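 Cancer cell lines were plated in 1536-well plates in 7.5 μl of DMEM/F12 or RPMI with 10% FBS and kept 24 hours at 37°C and 5% CO2 before 72 hours of dosing, with final DMSO typically 0.2%. CellTiter-Glo 2.0 luminescence measured viability, scaled between blank-well and DMSO-well means. Dose responses were fitted to a two-parameter logistic curve with a non-linear mixed effects model. This fit gives the single-agent IC50.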

AZD5363 = compound: C1CN(CCC1(C(=O)N[C@@H](CCO)C2=CC=C(C=C2)Cl)N)C3=NC=NC4=C3C=CN4 [AZD5363]; conditions: max 10 µM
Outline: as §1

AZD1775 = compound: C=CCn1c(=O)c2cnc(Nc3ccc(N4CCN(C)CC4)cc3)nc2n1-c1cccc(C(C)(C)O)n1 [AZD1775]; conditions: max 3 µM
Outline: as §1

Trametinib = compound: CC(=O)Nc1cccc(-n2c(=O)n(C3CC3)c(=O)c3c(Nc4ccc(I)cc4F)n(C)c(=O)c(C)c32)c1 [Trametinib]; conditions: max 1 µM
Outline: as §1

Paclitaxel = compound: CC(=O)O[C@H]1C(=O)[C@@]2(C)[C@H]([C@H](OC(=O)c3ccccc3)[C@]3(O)C[C@H](OC(=O)[C@H](O)[C@@H](NC(=O)c4ccccc4)c4ccccc4)C(C)=C1C3(C)C)[C@]1(OC(C)=O)CO[C@@H]1C[C@@H]2O [Paclitaxel]; conditions: max 3 µM
Outline: as §1

Palbociclib = compound: CC(=O)c1c(C)c2cnc(Nc3ccc(N4CCNCC4)cn3)nc2n(C2CCCC2)c1=O [Palbociclib]; conditions: max 10 µM
Outline: as §1

AZD1390 = compound: CC(C)n1c(=O)n(C)c2cnc3cc(F)c(-c4ccc(OCCCN5CCCCC5)nc4)cc3c21 [AZD1390]; conditions: max 0.3 µM
Outline: as §1

Venetoclax = compound: CC1(C)CCC(CN2CCN(c3ccc(C(=O)NS(=O)(=O)c4ccc(NCC5CCOCC5)c([N+](=O)[O-])c4)c(Oc4cnc5[nH]ccc5c4)c3)CC2)=C(c2ccc(Cl)cc2)C1 [Venetoclax]; conditions: max 1 µM
Outline: as §1

Dasatinib = compound: CC1=C(C(=CC=C1)Cl)NC(=O)C2=CN=C(S2)NC3=CC(=NC(=N3)C)N4CCN(CC4)CCO [Dasatinib]; conditions: max 2 µM
Outline: as §1

SG3199 = compound: CC1=CN2[C@@H](C1)C=NC3=CC(=C(C=C3C2=O)OC)OCCCCCOC4=C(C=C5C(=C4)N=C[C@@H]6CC(=CN6C5=O)C)OC [SG3199]; conditions: max 0.001 µM
Outline: as §1

AZD2811 = compound: CCN(CCO)CCCOc1ccc2c(Nc3cc(CC(=O)Nc4cccc(F)c4)[nH]n3)ncnc2c1 [AZD2811]; conditions: max 1 µM
Outline: as §1

SN-38 = compound: CCc1c2c(nc3ccc(O)cc13)-c1cc3c(c(=O)n1C2)COC(=O)[C@]3(O)CC [SN-38]; conditions: max 0.3 µM
Outline: as §1

AZD0156 = compound: CN(C)CCCOc1ccc(-c2ccc3ncc4c(c3c2)n(C2CCOCC2)c(=O)n4C)cn1 [AZD0156]; conditions: max 3 µM
Outline: as §1

AZD4320 = compound: CN(CC[C@H](CSC1=CC=CC=C1)NC2=C(C=C(C=C2)S(=O)(=O)NC(=O)C3=CC=C(C=C3)N4CCC(CC4)[C@H](C5=CC=CC=C5C6=CC=C(C=C6)Cl)O)S(=O)(=O)C(F)(F)F)CCO [AZD4320]; conditions: max 1 µM
Outline: as §1

Alisertib = compound: COc1cc(Nc2ncc3c(n2)-c2ccc(Cl)cc2C(c2c(F)cccc2OC)=NC3)ccc1C(=O)O [Alisertib]; conditions: max 10 µM
Outline: as §1

Etoposide = compound: COc1cc([C@@H]2c3cc4c(cc3[C@@H](O[C@@H]3O[C@@H]5CO[C@@H](C)O[C@H]5[C@H](O)[C@H]3O)[C@H]3COC(=O)[C@H]23)OCO4)cc(OC)c1O [Etoposide]; conditions: max 10 µM
Outline: as §1

Gefitinib = compound: COc1cc2ncnc(Nc3ccc(F)c(Cl)c3)c2cc1OCCCN1CCOCC1 [Gefitinib]; conditions: max 10 µM
Outline: as §1

Prexasertib = compound: COc1cccc(OCCCN)c1-c1cc(Nc2cnc(C#N)cn2)n[nH]1 [Prexasertib]; conditions: max 1 µM
Outline: as §1

Doxorubicin = compound: COc1cccc2c1C(=O)c1c(O)c3c(c(O)c1C2=O)C[C@@](O)(C(=O)CO)C[C@@H]3O[C@H]1C[C@H](N)[C@H](O)[C@H](C)O1 [Doxorubicin]; conditions: max 1 µM
Outline: as §1

AZD5153 = compound: COc1nnc2ccc(N3CCC(c4ccc(OCCN5CCN(C)C(=O)[C@H]5C)cc4)CC3)nn12 [AZD5153]; conditions: max 1 µM
Outline: as §1

Lapatinib = compound: CS(=O)(=O)CCNCc1ccc(-c2ccc3ncnc(Nc4ccc(OCc5cccc(F)c5)c(Cl)c4)c3c2)o1 [Lapatinib]; conditions: max 10 µM
Outline: as §1

AZD8186 = compound: C[C@@H](Nc1cc(F)cc(F)c1)c1cc(C(=O)N(C)C)cc2c(=O)cc(N3CCOCC3)oc12 [AZD8186]; conditions: max 10 µM
Outline: as §1

Crizotinib = compound: C[C@@H](Oc1cc(-c2cnn(C3CCNCC3)c2)cnc1N)c1c(Cl)ccc(F)c1Cl [Crizotinib]; conditions: max 10 µM
Outline: as §1

Savolitinib = compound: C[C@@H](c1ccc2nccn2c1)n1nnc2ncc(-c3cnn(C)c3)nc21 [Savolitinib]; conditions: max 1 µM
Outline: as §1

AZD6738 = compound: C[C@@H]1COCCN1C2=NC(=NC(=C2)C3(CC3)[S@](=N)(=O)C)C4=C5C=CNC5=NC=C4 [AZD6738]; conditions: max 10 µM
Outline: as §1

AZD5991 = compound: Cc1c2c(nn1C)CSCc1cc(n(C)n1)CSc1cc(c3ccccc3c1)OCCCc1c(C(=O)O)n(C)c3c-2c(Cl)ccc13 [AZD5991]; conditions: max 1 µM
Outline: as §1

AZD7648 = compound: Cc1cc2ncnn2cc1Nc1ncc2c(n1)n(C1CCOCC1)c(=O)n2C [AZD7648]; conditions: max 10 µM
Outline: as §1

Taselisib = compound: Cc1nc(-c2cn3c(n2)-c2ccc(-c4cnn(C(C)(C)C(N)=O)c4)cc2OCC3)n(C(C)C)n1 [Taselisib]; conditions: max 10 µM
Outline: as §1

Selumetinib = compound: Cn1cnc2c(F)c(Nc3ccc(Br)cc3Cl)c(C(=O)NOCCO)cc21 [Selumetinib]; conditions: max 10 µM
Outline: as §1

SRA737 = compound: N#Cc1cnc(Nc2cc(NC[C@H]3CNCCO3)c(C(F)(F)F)cn2)cn1 [SRA737]; conditions: max 10 µM
Outline: as §1

MK-2206 = compound: NC1(c2ccc(-c3nc4ccn5c(=O)[nH]nc5c4cc3-c3ccccc3)cc2)CCC1 [MK-2206]; conditions: max 10 µM
Outline: as §1

Gemcitabine = compound: Nc1ccn([C@@H]2O[C@H](CO)[C@@H](O)C2(F)F)c(=O)n1 [Gemcitabine]; conditions: max 0.3 µM
Outline: as §1

[1] = compound: O=C(Nc1ccc2[nH]nc(-c3ccncc3)c2c1)[C@@H]1CCN(CC(=O)N2CCN(c3ccc(-c4ncccn4)cc3)CC2)C1; conditions: max 5 µM
Outline: as §1

Olaparib = compound: O=C(c1cc(Cc2n[nH]c(=O)c3ccccc23)ccc1F)N1CCN(C(=O)C2CC2)CC1 [Olaparib]; conditions: max 10 µM
Outline: as §1

5-Fluorouracil = compound: O=c1[nH]cc(F)c(=O)[nH]1 [5-Fluorouracil]; conditions: max 20 µM
Outline: as §1

Caov-4 (Ovarian Carcinoma)
IC50, cell viability 72 h (Carboplatin): > 10000 nM
IC50, cell viability 72 h (AZD5363): > 10000 nM
IC50, cell viability 72 h (AZD1775): 816 nM
IC50, cell viability 72 h (Trametinib): 108 nM
IC50, cell viability 72 h (Paclitaxel): 545 nM
IC50, cell viability 72 h (Palbociclib): > 10000 nM
IC50, cell viability 72 h (AZD1390): > 300 nM
IC50, cell viability 72 h (Venetoclax): > 1000 nM
IC50, cell viability 72 h (Dasatinib): > 2000 nM
IC50, cell viability 72 h (SG3199): > 1 nM
IC50, cell viability 72 h (AZD2811): > 1000 nM
IC50, cell viability 72 h (SN-38): 11.6 nM
IC50, cell viability 72 h (AZD0156): > 3000 nM
IC50, cell viability 72 h (AZD4320): > 1000 nM
IC50, cell viability 72 h (Alisertib): > 10000 nM
IC50, cell viability 72 h (Etoposide): 6040 nM
IC50, cell viability 72 h (Gefitinib): > 10000 nM
IC50, cell viability 72 h (Prexasertib): 12.6 nM
IC50, cell viability 72 h (Doxorubicin): 253 nM
IC50, cell viability 72 h (AZD5153): 719 nM
IC50, cell viability 72 h (Lapatinib): > 10000 nM
IC50, cell viability 72 h (AZD8186): > 10000 nM
IC50, cell viability 72 h (Crizotinib): > 10000 nM
IC50, cell viability 72 h (Savolitinib): > 1000 nM
IC50, cell viability 72 h (AZD6738): 3190 nM
IC50, cell viability 72 h (AZD5991): 993 nM
IC50, cell viability 72 h (AZD7648): > 10000 nM
IC50, cell viability 72 h (Taselisib): > 10000 nM
IC50, cell viability 72 h (Selumetinib): > 10000 nM
IC50, cell viability 72 h (SRA737): 4020 nM
IC50, cell viability 72 h (MK-2206): 9350 nM
IC50, cell viability 72 h (Gemcitabine): 78.5 nM
IC50, cell viability 72 h [1]: 3330 nM
IC50, cell viability 72 h (Olaparib): > 10000 nM
IC50, cell viability 72 h (5-Fluorouracil): > 20000 nM

EFM-19 (Breast Carcinoma)
IC50, cell viability 72 h (Carboplatin): > 10000 nM
IC50, cell viability 72 h (AZD5363): > 10000 nM
IC50, cell viability 72 h (AZD1775): 2090 nM
IC50, cell viability 72 h (Trametinib): > 1000 nM
IC50, cell viability 72 h (Paclitaxel): 26.9 nM
IC50, cell viability 72 h (Palbociclib): > 10000 nM
IC50, cell viability 72 h (AZD1390): > 300 nM
IC50, cell viability 72 h (Venetoclax): > 1000 nM
IC50, cell viability 72 h (Dasatinib): > 2000 nM
IC50, cell viability 72 h (SG3199): > 1 nM
IC50, cell viability 72 h (AZD2811): > 1000 nM
IC50, cell viability 72 h (SN-38): 288 nM
IC50, cell viability 72 h (AZD0156): > 3000 nM
IC50, cell viability 72 h (AZD4320): > 1000 nM
IC50, cell viability 72 h (Alisertib): > 10000 nM
IC50, cell viability 72 h (Etoposide): > 10000 nM
IC50, cell viability 72 h (Gefitinib): > 10000 nM
IC50, cell viability 72 h (Prexasertib): > 1000 nM
IC50, cell viability 72 h (Doxorubicin): > 1000 nM
IC50, cell viability 72 h (AZD5153): > 1000 nM
IC50, cell viability 72 h (Lapatinib): > 10000 nM
IC50, cell viability 72 h (AZD8186): > 10000 nM
IC50, cell viability 72 h (Crizotinib): > 10000 nM
IC50, cell viability 72 h (Savolitinib): > 1000 nM
IC50, cell viability 72 h (AZD6738): > 10000 nM
IC50, cell viability 72 h (AZD5991): > 1000 nM
IC50, cell viability 72 h (AZD7648): > 10000 nM
IC50, cell viability 72 h (Taselisib): 564 nM
IC50, cell viability 72 h (Selumetinib): > 10000 nM
IC50, cell viability 72 h (SRA737): > 10000 nM
IC50, cell viability 72 h (MK-2206): > 10000 nM
IC50, cell viability 72 h (Gemcitabine): > 300 nM
IC50, cell viability 72 h [1]: > 5000 nM
IC50, cell viability 72 h (Olaparib): > 10000 nM
IC50, cell viability 72 h (5-Fluorouracil): > 20000 nM
